# From patent publication US20150159169A1, “Plants Tolerant to HPPD Inhibitor Herbicides” (Bayer CropScience AG, priority 2009, published 2015)
# Experiments:
# [1] = test system: tobacco plants containing FMP27t-h, PAT and 2mEPSPS (pFCO116); assay: Glasshouse response of three-tolerance-gene tobacco to herbicides, injury classes; assay type: in vivo, Nicotiana tobacum; details: 100 g AI/ha, 9 DAT
# Experimental: A binary vector for tobacco transformation is, for example, constructed with the CaMV35 promoter driving the expression of the gene FMP27t-h (SEQ ID No. 15), with a codon usage optimized for the expression in dicotyledoneous plants and at its 5′extremity was added a sequence coding for an OTP, and further upstream a sequence TEV (Tobacco etch virus) to improve the stability of the mRNA in plants followed by the CaMV35S terminator. The nucleotide sequence of the gene FMP27t-h is given in SEQ ID No. 15. Additionally, the transformation vector also contains a PAT gene cassette in which the gene is driven by a CaVM35S promoter and followed by a CaMV35S terminator for glufosinate based selection during the transformation process and a 2mEPSPS gene cassette in which the gene is driven by an histone promoter from Arabidopsis to confer tolerance to the herbicide glyphosate to the transformed plants (see FIG. 3 H). The binary vector was called pFCO116. The above vector was used to transform leaf disc obtained from Nicotiana tobacum plants, according to Example 3.
# Transgenic tobacco plants were transferred to the greenhouse and treated with glyphosate at a rate of 1121 g AI/ha. Seeds were produced from such tolerant tobacco plants and harvested. These seeds were put on soil to germinate in the glasshouse. Three to four weeks later, 50 plantlets per event were transferred to single pots. Two weeks later, plants of a size 4-6 cm were sprayed either with
# […] […] Non-transgenic tobacco plants were completely killed by treatment using one or more of the above herbicides.
# [2] = test system: rice shoots containing AtHPPD; assay: Bleaching of rice shoots on MS/2 with tembotrione; assay type: cell-based; details: 2 weeks
# Experimental: (§1) Rice transformation is achieved using methods well known in the art. Briefly, the Agrobacterium tumefaciens mediated transformation of rice was performed using immature embryos, from the restorer line 6G4317. Briefly, panicles from donor plants were harvested 8-12 days after pollination. The lemma of the immature seed was removed. Seeds were thereafter sterilized using a NaOCl based solution and Tween. The seeds were preinduced with […]. Agrobacterium tumefaciens cells are then co-cultivated with the preinduced seeds in presence of acetosyringone for 4 days at 24° C. in the dark. Thereafter, coleoptile from embryos are removed and washed, then put on a media supplemented with phosphinothricin for 3 weeks at 28° C. under a photoperiod rhythm of 16 hours. Then the growing calli were cut off from the embryos, and transferred to fresh media containing triacillin, phosphinothricin, L-proline and copper (II) sulfate.
# (§2) For each callus-line and per Tembotrione concentration, 3 shoots, and randomly isolated from different callus pieces, were transferred to MS/2 with Tembotrione. As a general rule, transfer of the shoots from regeneration medium to MS/2 occurred 9 weeks after calli had been put on regeneration medium.
# (§3) Cultures were incubated at 26.5° C. (16 hrs. photoperiod) and evaluation of symptoms occurred 2 weeks later.
# (§4) New developing leaves of the shoots transferred have been scored on the basis of bleaching and categorized in 3 groups:
# (§5) a) no bleaching b) intermediate bleaching c) complete bleaching
# (§6) Within the category Intermediate bleaching′ a distinction has been made between shoots having new leaves showing only very little bleaching symptoms and thus tending to green leaves, and shoots with new leaves almost completely bleached.
# [3] = test system: rice shoots containing FMP27e; assay: Bleaching of rice shoots on MS/2 with tembotrione; assay type: cell-based; details: 2 weeks
# Experimental: as §1, §2, §3, §4, §5, §6
# [4] = test system: T0 tobacco plants expressing the FMP27 HPPD (FMP27t); assay: Greenhouse response of T0 tobacco plants to tembotrione; assay type: in vivo, Nicotiana tabacum; details: 100 g AI/ha, two weeks after treatment
# Experimental: As an example, rooted plants containing the T-DNA PromCaMV35S-OTP-HIS6-FMP27t-TerCaMV35S, were transferred to the greenhouse under standard growth conditions. Following a period of acclimation of two weeks, the T0 plants were treated with a mixture containing 100 g tembotrione/ha prepared from a WP20 (wettable powder 20%) formulation supplemented with ammonium sulfate and methyl ester raps oil. Two weeks after the treatment, the symptoms due to the application of the herbicides were evaluated. The plants were classified in four categories. The treated plants evaluated as “0” are looking like the untreated tobacco plants. The plants evaluated as “1” display temporarily light bleaching phenotype due to the application of the herbicides. The plants evaluated as “2” display permanent light to strong bleaching symptoms. Finally the plants evaluated as “3” are looking like wild type tobacco plants submitted to the same treatment.
# [5] = test system: tobacco calli containing SEQ ID No. 11 (Arabidopsis thaliana HPPD); assay: Rooting of calli on tembotrione media; assay type: cell-based, Nicotiana tabacum; details: 6 to 12 weeks, calli with SEQ ID No. 11
# Experimental: (§7) The leaf disks were co-cultivated for 2 days with Agrobacterium tumefaciens cells containing either the binary vector FMP27ebv or AtHPPDbv. Then the leaf disks were transferred to a media allowing the regeneration of shoots for 6 weeks on MS (Musharige and Skoog, (1962), Physiol Plant 15(3): 473-497) media supplemented with BAP (1 mg/mL; Benzylaminopurine), carbenicillin (250 mg/mL), cefotaxine (250 mg/mL), kanamycin (75 mg/mL) and tembotrione (10^−6 M)
# (§8) Regenerated calli were transferred on media to induce the development of roots for 6 to 12 weeks: MS (1/2), supplemented with carbenicillin (250 mg/mL), cefotaxine (250 mg/mL), kanamycin (75 mg/mL), and tembotrione (10^−6 M).
# (§9) Regenerated shoot calli from a cell transformed with a nucleic acid sequence encoding an HPPD comprising SEQ ID No. 11 (Arabidopsis thaliana) or SEQ ID No. 7 (Kordia algicida) were transferred to a media inducing root growth which media was further supplemented with the HPPD inhibitor tembotrione for 6 to 12 weeks.
# [6] = test system: tobacco calli containing SEQ ID No. 7 (Kordia algicida HPPD); assay: Rooting of calli on tembotrione media; assay type: cell-based, Nicotiana tabacum; details: 6 to 12 weeks, calli with SEQ ID No. 7
# Experimental: as §7, §8, §9
smiles,measurement,setting,value
"CS(=O)(=O)c1ccc(C(=O)C2C(=O)CCCC2=O)c(Cl)c1COCC(F)(F)F [Tembotrione, 2-[2-chloro-4-(methylsulfonyl)-3-[(2,2,2,-tri-fluoroethoxy)methyl]benzoyl]-1,3-cyclo-hexanedione]","Class I, number of plants (no injuries)",[1]; line 639,7
same,"Class II, number of plants (injury: 10-40%)",[1]; line 639,3
same,"Class III, number of plants (injury: 41-100%)",[1]; line 639,0
same,"Class I, number of plants (no injuries)",[1]; line 714,5
same,"Class II, number of plants (injury: 10-40%)",[1]; line 714,1
same,"Class III, number of plants (injury: 41-100%)",[1]; line 714,4
same,"Class I, number of plants (no injuries)",[1]; line 717,4
same,"Class II, number of plants (injury: 10-40%)",[1]; line 717,2
same,"Class III, number of plants (injury: 41-100%)",[1]; line 717,4
same,N^o of shoots completely bleached,[2]; 1 μM,12
same,N^o of shoots with intermediate bleaching,[2]; 1 μM,19
same,N^o of shoots without bleaching,[2]; 1 μM,27
same,N^o of shoots completely bleached,[2]; 5 μM,58
same,N^o of shoots with intermediate bleaching,[2]; 5 μM,2
same,N^o of shoots without bleaching,[2]; 5 μM,0
same,N^o of shoots completely bleached,[3]; 1 μM,10
same,N^o of shoots with intermediate bleaching,[3]; 1 μM,19
same,N^o of shoots without bleaching,[3]; 1 μM,28
same,N^o of shoots completely bleached,[3]; 5 μM,36
same,N^o of shoots with intermediate bleaching,[3]; 5 μM,21
same,N^o of shoots without bleaching,[3]; 5 μM,0
same,number of plants in category 0 (looking like the untreated tobacco plants),[4],11
same,number of plants in category 1 (temporarily light bleaching),[4],4
same,number of plants in category 2 (permanent light to strong bleaching),[4],10
same,number of plants in category 3 (like wild type plants submitted to the same treatment),[4],4
same,% Elongation & rooting on 10^−6M tembotrione,[5],0%
same,% Elongation & rooting on 10^−6M tembotrione,[6],62%
